Assay results as given in patent US7683173B2, “Biphenyl compounds useful as muscarinic receptor antagonists” (Theravance, Inc., priority 2005, dated 2010).

How the values were obtained:
[1] = target: T1, M3 muscarinic receptor subtype (hM3) (Homo sapiens, UniProt P20309); assay: Radioligand binding assay ([3H]-NMS displacement); conditions: tested in this or a similar assay
T1 construct: expressed in transfected cells
Procedure: CHO cell lines stably expressing cloned human hM1, hM2, hM3 and hM4 muscarinic receptor subtypes, respectively, were grown to near confluency in medium consisting of HAM's F-12 supplemented with 10% FBS and 250 μg/mL Geneticin. The cells were grown in a 5% CO2, 37° C. incubator and lifted with 2 mM EDTA in dPBS. Cells were collected by 5 minute centrifugation at 650×g, and cell pellets were either stored frozen at −80° C. or membranes were prepared immediately. For membrane preparation, cell pellets were resuspended in lysis buffer and homogenized with a Polytron PT-2100 tissue disrupter (Kinematica AG; 20 seconds×2 bursts). Crude membranes were centrifuged at 40,000×g for 15 minutes at 4° C. […] The protein concentration of the membrane suspension was determined by the method described in Lowry, O. et al., Journal of Biochemistry 193:265 (1951). […]
Radioligand binding assays were performed in 96-well microtiter plates in a total assay volume of 100 μL. […] Filter plates were rinsed three times with wash buffer (10 mM HEPES) to remove unbound radioactivity. […] The plates were then counted in a PerkinElmer Topcount liquid scintillation counter (PerkinElmer Inc., Wellesley, Mass.). Binding data were analyzed by nonlinear regression analysis with the GraphPad Prism Software package (GraphPad Software, Inc., San Diego, Calif.) using the one-site competition model. […]

[2] = Dynamic moisture sorption assessment; type: physicochemical
Procedure: A dynamic moisture sorption (DMS) assessment (also known as a moisture sorption-desorption profile) was performed for samples of the crystalline monopropionate salt using a VTI atmospheric microbalance, SGA-100 system (VTI Corp., Hialeah, Fla. 33016). A sample size of approximately 10 mg was used and the humidity was set at the ambient value at the start of the analysis. A typical DMS analysis consisted of three scans: ambient to 2% relative humidity (RH), 2% RH to 90% RH, 90% RH to 5% RH at a scan rate of 5% RH/step. The mass was measured every two minutes and the RH was changed to the next value (+/−5% RH) when the mass of the sample was stable to within 0.01% for 5 consecutive points.

Thermal analysis (DSC) = type: physicochemical; conditions: DSC trace
Procedure: Differential scanning calorimetry (DSC) was performed using a TA Instruments Model Q-10 module with a Thermal Analyst controller. Data were collected and analyzed using TA Instruments Thermal Solutions software. A sample of about 1 mg was accurately weighed into an aluminum pan with lid. The sample was evaluated using a linear heating ramp of 10° C./min from ambient temperature to approximately 300° C. The DSC cell was purged with dry nitrogen during use.

T1 sequence (P20309 whole entry): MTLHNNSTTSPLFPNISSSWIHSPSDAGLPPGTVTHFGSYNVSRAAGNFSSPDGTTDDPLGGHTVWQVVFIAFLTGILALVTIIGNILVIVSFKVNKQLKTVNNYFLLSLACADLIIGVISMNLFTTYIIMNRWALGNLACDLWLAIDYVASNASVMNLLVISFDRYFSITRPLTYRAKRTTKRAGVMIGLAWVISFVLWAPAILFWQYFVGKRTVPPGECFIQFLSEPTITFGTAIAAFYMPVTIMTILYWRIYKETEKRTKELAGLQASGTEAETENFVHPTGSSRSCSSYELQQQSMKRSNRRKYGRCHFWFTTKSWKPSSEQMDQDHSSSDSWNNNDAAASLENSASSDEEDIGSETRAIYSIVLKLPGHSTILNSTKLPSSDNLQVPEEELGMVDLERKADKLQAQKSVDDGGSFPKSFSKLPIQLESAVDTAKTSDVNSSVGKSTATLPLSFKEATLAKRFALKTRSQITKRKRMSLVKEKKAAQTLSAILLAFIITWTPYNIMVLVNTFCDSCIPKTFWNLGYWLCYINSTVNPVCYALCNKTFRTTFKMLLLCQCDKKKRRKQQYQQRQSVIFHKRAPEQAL

Structure (SMILES): O=C(Nc1ccccc1-c1ccccc1)OC1CCN(CCCN2CCN(CCCNCc3ccc(O)cc3)C2=O)CC1 [Example 1, Biphenyl-2-ylcarbamic Acid 1-(3-{3-[3-(4-Hydroxybenzylamino)propyl]-2-oxoimidazolidin-1-yl}propyl)piperidin-4-yl Ester]
- Ki [1]: < 5 nM

Structure (SMILES): CCC(=O)O.O=C(Nc1ccccc1-c1ccccc1)OC1CCN(CCCN2CCN(CCCNCc3ccc(O)cc3)C2=O)CC1 [Example 2, Monopropionate Crystalline Salt of Biphenyl-2-ylcarbamic Acid 1-(3-{3-[3-(4-Hydroxybenzylamino)propyl]-2-oxoimidazolidin-1-yl}propyl)piperidin-4-yl Ester]
- hygroscopicity (sorption/desorption profile) ([2]; DMS trace): low hygroscopicity
- weight gain ([2]; humidity range of 40-70% RH, micronized material): 1.0%
- weight gain ([2]; humidity range of 40-70% RH, unmicronized): 0.7%
- weight gain ([2]; humidity range of 40-75% RH): 0.3%
- thermal stability (Thermal analysis (DSC)): good thermal stability
